Some results are limits rather than exact numbers.

Data set [1] concerns MM1.S. The experiment in a line: MM1.S myeloma cell viability. It counts as cell-based. The note with it: Homo sapiens; for viability at 6.75 µM: MM1.S, compound at 6.75 μM, read-out: MM1.S Viable cells at 6.75 μM (%); for IC50: MM1.S myeloma cells. From the text: Cell lines: Multiple myeloma cell lines MM1.S, MM1.R, NCI-H929 were obtained from ATCC. MM cell lines KMS-12-PE and KMS-12-BM were from the JCRB, JJN-3 from DSMZ, and 5TGM1-luc cells were from Dr. Yoneda at the University of Texas Health Science at San Antonio. HRMM.09 cells were generated in the inventor's lab from a patient who developed refractory myeloma after treatment with steroids, IMiD, proteasome inhibitors, DNA alkylators, and anthracyclines. MM1.S-luc and HRMM.09-luc were generated in the inventor's laboratory by transduction with Cignal™ firefly luciferase control lentivirus obtained from Qiagen™. Lymphoma cells were generated by Mitchell Smith. All MM and lymphoma cells were grown in RPMI 1640 (NaCl 103.45 mM, NaCO3 23.81 mM, Na2HPO4 5.63 mM, KCl 5.33 mM, Ca(NO3)2 4H2O 0.424 mM, MgSO4 0.407 mM, pH around 7.2), supplemented with 10% fetal bovine serum, penicillin G (50 units ml^−1), and streptomycin ([…]). HS-5 cells were grown in appropriate cell culture media. Normal bone marrow cells were obtained from discarded bags of bone marrow grafts from healthy donors and either kept in RPMI with 25% (v/v) HS-5 supernatant for up to 14 days for isolated cytotoxicity assays or frozen and thawed for the sandwich assay. All cells were cultured at 37° C., 5% CO2 in humidified air.

For data set [2], the target named is recombinant PDI (Homo sapiens, UniProt P07237). The experiment in a line: PDI activity assay (di-eosin-di-gluthathione, eGSSG). It counts as biochemical. The note with it: for PDI Activity at 10 μM (%): compound at 10 μM; for IC50: recombinant PDI, di-eosin-di-gluthathione assay. The procedure:
PDI activity assay: The di-eosin-di-gluthathione assay was performed essentially as described (Raturi, A. and Mutus, B Free Radical Biology & Medicine 43; 2007) with the minor modification that we used gluthathione instead of DTT as reducing agent. Briefly, recombinant PDI was incubated with CC642 or analogs in potassium-based assay buffer at 37° C. before reactions were started by addition of gluthathione and di-eosin-di-gluthathione. Release of eosin was measured every 60 seconds for 30 min using excitation/emission filters of 525 nm/545 nm, respectively.
(§1) Next, MM1.S cells were treated with B-CCF642 and purified lysates of treated and untreated cells for B-CCF642 binding proteins using streptavidin beads followed by SDS-PAGE and mass spectroscopy for protein sequencing of a band that contained biotin signal. Among 10 proteins that were only recovered from treated cells PDI was the most abundant but HSP70 family members were also recovered. To test whether HSP70 family members were inhibited by CCF642, chaperone assays were performed that tested rearrangement of partially denatured luciferase. […] However, PDI function, as assessed by the eGSSG assay which measures PDI's reducing capacity, was inhibited by CCF642 (table 1). […] To determine whether PDI activity is inhibited in vivo, the inventors performed IRE1-α immunoblots after CCF642 treatment of MM1.S cells. IRE1-α acts as a sensor for misfolded proteins in the ER and undergoes oligomerization after it binds to misfolded proteins which changes its conformation into an active state. Lavoie et al., Trends in biochemical sciences, 39(10):475-486 (2014). Within 15 min CCF642 caused IRE1-α oligomerization (FIG. 6) which was associated with increase in protein ubiquitination (FIGS. 2b and 4), a well-documented consequence of reduction in PDI activity. Lee et al., EMBO molecular medicine. 6(6):732-743 (2014).

Data set [3] is described as follows: Tolerability in mice. Format: in vivo, C57BL/KaLwRij mice.
Data set [4] relates to MM cell lines. In words: Cytotoxicity in MM cell line panel (trypan blue exclusion, Vicell). It counts as cell-based. The note with it: 72 h, all 8 MM cell lines tested. As to the method: (§2) FIGS. 2(A-B) provide a graph and immunoblot showing the effect of CCF642 on cancer and protein ubiquitination, with FIG. 2(A) showing the activity of CCF642 against a panel of MM and lymphoma cells. Seventy two hours after CCF642 administration, the IC50 by trypan blue exclusion (Vicell™) is <1 μM for all MM and all but one lymphoma line. Normal bone marrow (NL BM) tolerated CCF642; myeloid cells were less sensitive, especially GDM1, with E3 ligase domain mutation of c-CBL and FIG. 2(B) showing that an increase in protein ubiquitination is accompanied by loss of myeloma survival factors in MM cells Immunoblots of MM1.S cells show rise followed by decrease of protein ubiquitination with loss of MM survival factors.
(§3) Cell lines: Multiple myeloma cell lines MM1.S, MM1.R, NCI-H929 were obtained from ATCC. MM cell lines KMS-12-PE and KMS-12-BM were from the JCRB, JJN-3 from DSMZ, and 5TGM1-luc cells were from Dr. Yoneda at the University of Texas Health Science at San Antonio. HRMM.09 cells were generated in the inventor's lab from a patient who developed refractory myeloma after treatment with steroids, IMiD, proteasome inhibitors, DNA alkylators, and anthracyclines. MM1.S-luc and HRMM.09-luc were generated in the inventor's laboratory by transduction with Cignal™ firefly luciferase control lentivirus obtained from Qiagen™. Lymphoma cells were generated by Mitchell Smith. […]

Data set [5] relates to protein ubiquitination. The experiment in a line: Protein ubiquitination time course immunoblot in MM1.S cells. It counts as cell-based. From the text:
Protein ubiquitination and depletion of c-MYC, IRF4, and NF-κB. Initial tests were aimed at excluding proteasome inhibitors from further study and used WB for accumulation of ubiquitinated proteins after one day of therapy. […] Another proteasomally regulated protein, p27, disappeared as well.
On the technique in general: A western blot detects proteins with antibodies after separation by electrophoresis.

Data set [6] relates to IRE1-α. In words: IRE1-α oligomerization immunoblot in MM1.S cells. It counts as cell-based. As to the method:
as §1

Data set [7] relates to normal bone marrow (NL BM) cells. The experiment in a line: Cytotoxicity in normal bone marrow. The note with it: three independent normal bone marrow samples; doses up to 6.75 μM. It counts as cell-based. As to the method:
as §2, §3

Data set [8] relates to lymphoma cell lines. The experiment in a line: Cytotoxicity in lymphoma cell line panel (trypan blue exclusion, Vicell). It counts as cell-based. The note with it: 6 of 7 (all but one) lymphoma lines, 72 h. As to the method:
as §2, §3

Sequence of recombinant PDI (P07237 18-508, species assumed): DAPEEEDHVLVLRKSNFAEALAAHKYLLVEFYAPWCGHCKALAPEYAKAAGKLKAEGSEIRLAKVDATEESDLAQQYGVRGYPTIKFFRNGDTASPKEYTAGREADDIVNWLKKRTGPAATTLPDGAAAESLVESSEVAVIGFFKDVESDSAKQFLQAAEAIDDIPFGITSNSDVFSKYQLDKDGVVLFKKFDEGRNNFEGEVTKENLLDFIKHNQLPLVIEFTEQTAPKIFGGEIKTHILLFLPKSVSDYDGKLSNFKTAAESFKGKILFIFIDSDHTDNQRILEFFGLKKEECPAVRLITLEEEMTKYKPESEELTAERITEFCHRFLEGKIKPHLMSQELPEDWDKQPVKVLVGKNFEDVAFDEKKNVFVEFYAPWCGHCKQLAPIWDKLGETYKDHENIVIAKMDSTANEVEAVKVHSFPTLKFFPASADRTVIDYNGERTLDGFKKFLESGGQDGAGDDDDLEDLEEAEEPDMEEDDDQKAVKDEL

On to `COc1ccc(N2C(=O)C(=Cc3ccc(C(F)(F)F)s3)SC2=S)cc1` [642-20], for which, in data set [1], the viability at 6.75 µM was found to be 92.9% and the IC50 is over 6750 nM. Further, the “PDI Activity at 10 μM (%)” value in data set [2] amounted to 72.37%.

For the molecule `COc1ccc(N2C(=O)C(=Cc3ccc(C(=O)O)s3)SC2=S)cc1` [642-21], in data set [1], the viability at 6.75 µM came out at 102% and the IC50 was over 6750 nM. Further, the “PDI Activity at 10 μM (%)” value in data set [2] is 71.54%.

As for `N#Cc1ccc(N2C(=O)C(=Cc3ccc([N+](=O)[O-])s3)SC2=S)cc1` [642-23], in data set [1], the viability at 6.75 µM came out at 17.5% and the IC50 was 610 nM. For the same molecule, in data set [2], the “PDI Activity at 10 μM (%)” value is listed as 5.92% and the IC50 was 1900 nM.

As for `COc1ccc(N2C(=O)/C(=C/c3cccc([N+](=O)[O-])c3)SC2=S)cc1` [642-24], in data set [1], the viability at 6.75 µM is 93.5% and the IC50 is over 6750 nM. Besides, in data set [2], the “PDI Activity at 10 μM (%)” value was 42.12% and the IC50 amounted to 8660 nM.

As to `C=CCc1cccc(/C=C2\SC(=S)N(c3ccc(OC)cc3)C2=O)c1O` [642-25], in data set [1], the viability at 6.75 µM is 92.8% and the IC50 is over 6750 nM. Further, in data set [2], the “PDI Activity at 10 μM (%)” value is given as 40.37% and the IC50 worked out at 3070 nM.

Take `COc1ccc(N2C(=O)/C(=C/c3ccc([N+](=O)[O-])s3)SC2=S)cc1` [642-Parent]: in data set [3] (C57BL/KaLwRij mice systemically engrafted with 5TGM1-luc), the “tolerability in 5TGM1-luc engrafted mice” value was “well tolerated”. Besides, in data set [3] (albumin-based formulation (10-20% BSA, saline, 10% DMSO) given IV), the “tolerability IV” value is “tolerated by mice when given IV”. The viability at 6.75 µM in data set [1] is 8.06%. The IC50 was 250 nM in data set [1]; under 1000 nM in data set [4]; about 500 nM in data set [4] (listed as CCF642); over 6750 nM in data set [7]; under 1000 nM in data set [8]; 2440 nM in data set [2]. Moreover, the “time to increase in protein ubiquitination” value in data set [5] is at most 30 min. The “time to IRE1-α oligomerization” value in data set [6] is recorded as at most 15 min. The “PDI Activity at 10 μM (%)” value in data set [2] worked out at 21.51%.

Consider `CC(C)C[C@H](NC(=O)[C@H](Cc1ccccc1)NC(=O)c1cnccn1)B(O)O` [bortezomib, reference compound], for which the maximal tolerated dose in data set [3] (SC twice a week, C57BL/KaLwRij mice) is 0.5 mg/kg.

The IC50 is the concentration that inhibits the measured activity by half.

The values are drawn from US9359342B2, “Protein disulfide isomerase inhibiting anticancer agents” (THE CLEVELAND CLINIC FOUNDATION, priority 2013, dated 2016).
